# Measured values as given in PMC10108353, “Design and Pharmacological Characterization of α4β1 Integrin Cyclopeptide Agonists: Computational Investigation of Ligand Determinants for Agonism versus Antagonism” (Journal of Medicinal Chemistry, 2023).
# Tests used:
# [1] = molecular target: T1, α5β1 integrin (Homo sapiens, UniProt P05556+P08648); experiment: Competitive solid-phase binding assay, purified α5β1 / FN; conditions: read-out: Binding affinity IC50, α5β1/FN
# Experimental: Solid-phase ligand binding assays on purified integrin were conducted as previously described[34] with the following modifications. […] The following day, wells were blocked with TSB buffer (20 mM Tris-HCl, 150 mM NaCl, 1 mM CaCl2, 1 mM MgCl2, 1 mM MnCl2, pH 7.5, 1% BSA) for 1 h at room temperature. Purified α5β1 (10 μg/mL) or αLβ2 (7 μg/mL) was incubated with the new synthesized compounds, at different concentrations (10^–4 to 10^–10 M), in coated wells for 1 h at RT. Then, after three washes with PBST buffer, primary antibody (anti-α5β1, BD Bioscience, 1:100 dilution or anti-αL, Abcam, 1:200 dilution) was added for 1 h at RT. Then antirabbit AlexaFluor488-secondary antibody (ThermoFisher Scientific, 1:400 dilution) was added after three washes with PBST buffer and incubated 1 h at room temperature.
# [2] = molecular target: T2, α4β7 integrin (Homo sapiens, UniProt P13612+P26010); conditions: purified integrin; read-out: Binding affinity IC50, α4β7/MAdCAM-1
# T2 construct: purchased R&D Systems
# T2 sequence (P13612 34-970 limits assumed): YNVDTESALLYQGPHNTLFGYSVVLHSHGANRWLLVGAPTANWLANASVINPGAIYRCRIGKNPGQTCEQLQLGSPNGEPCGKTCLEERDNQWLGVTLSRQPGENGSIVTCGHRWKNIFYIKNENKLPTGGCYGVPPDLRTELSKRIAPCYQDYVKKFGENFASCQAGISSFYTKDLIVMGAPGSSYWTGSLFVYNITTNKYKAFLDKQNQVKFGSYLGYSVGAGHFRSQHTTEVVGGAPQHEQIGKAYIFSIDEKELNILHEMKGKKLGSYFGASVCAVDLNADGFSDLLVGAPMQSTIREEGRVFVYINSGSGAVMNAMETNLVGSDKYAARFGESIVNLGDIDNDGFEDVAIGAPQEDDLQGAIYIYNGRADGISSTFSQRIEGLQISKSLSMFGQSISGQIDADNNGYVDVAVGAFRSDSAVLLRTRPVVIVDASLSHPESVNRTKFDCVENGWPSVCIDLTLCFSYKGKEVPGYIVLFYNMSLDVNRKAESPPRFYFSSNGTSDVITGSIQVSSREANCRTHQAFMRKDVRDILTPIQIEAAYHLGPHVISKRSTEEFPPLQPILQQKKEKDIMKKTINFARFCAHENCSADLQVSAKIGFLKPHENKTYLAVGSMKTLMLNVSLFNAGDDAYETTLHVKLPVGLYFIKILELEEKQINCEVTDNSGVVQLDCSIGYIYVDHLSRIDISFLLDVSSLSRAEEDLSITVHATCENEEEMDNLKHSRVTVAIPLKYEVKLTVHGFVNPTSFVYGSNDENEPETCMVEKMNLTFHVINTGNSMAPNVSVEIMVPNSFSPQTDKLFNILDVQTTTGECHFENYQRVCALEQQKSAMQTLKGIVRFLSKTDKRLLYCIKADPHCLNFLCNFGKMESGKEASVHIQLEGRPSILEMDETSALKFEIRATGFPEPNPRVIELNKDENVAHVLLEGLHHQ
# T2 sequence (P26010 20-723 limits assumed): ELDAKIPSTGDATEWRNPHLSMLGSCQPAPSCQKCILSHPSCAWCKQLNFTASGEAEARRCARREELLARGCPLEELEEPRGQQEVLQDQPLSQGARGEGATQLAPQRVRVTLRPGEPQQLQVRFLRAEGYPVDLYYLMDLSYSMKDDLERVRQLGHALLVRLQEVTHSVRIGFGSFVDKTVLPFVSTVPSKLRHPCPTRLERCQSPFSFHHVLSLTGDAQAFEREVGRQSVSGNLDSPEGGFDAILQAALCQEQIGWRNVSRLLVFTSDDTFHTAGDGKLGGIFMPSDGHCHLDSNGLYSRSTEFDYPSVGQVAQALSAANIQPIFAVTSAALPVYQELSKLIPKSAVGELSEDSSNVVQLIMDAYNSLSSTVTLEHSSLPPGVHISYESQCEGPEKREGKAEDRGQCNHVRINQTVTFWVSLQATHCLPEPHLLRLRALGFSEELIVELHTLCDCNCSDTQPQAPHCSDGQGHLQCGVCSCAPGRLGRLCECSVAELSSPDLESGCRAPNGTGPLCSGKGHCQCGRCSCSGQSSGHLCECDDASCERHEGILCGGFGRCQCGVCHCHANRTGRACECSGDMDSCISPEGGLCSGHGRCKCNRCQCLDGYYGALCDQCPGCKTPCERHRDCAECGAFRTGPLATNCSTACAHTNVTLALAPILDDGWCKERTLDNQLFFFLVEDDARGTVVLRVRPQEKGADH
# Experimental: (§1) For the evaluation of binding affinity to purified α4β1, αMβ2, and α4β7 integrins, competitive solid-phase ligand binding assays were performed as follows. […] Afterward, each well was washed and blocked for 1 h at RT. Purified integrins (α4β1: 0.5 μg/mL; α4β7: 0.5 μg/mL; αMβ2: 0.5 μg/mL; R&D Systems) were preincubated with serial dilutions of new compounds (10^–4 – 10^–10 M) for 30 min at RT and then plated into coated wells for 1 h at RT. After two washes, primary antibody (for α4β1 and α4β7: rabbit anti-α4, Abcam, 1:100 dilution; for αMβ2: rabbit anti-αM, Abcam, 1:100 dilution) was added and incubated for 1 h at RT. The plate was washed twice and then was incubated with anti-rabbit AlexaFluor488 secondary antibody (1:400 dilution, ThermoFischer Scientific) for 1 h at RT. After washing three times, fluorescence was measured as described in the previous section.
# [3] = molecular target: T3, α4β1 integrin (Homo sapiens, UniProt P05556+P13612); experiment: Competitive solid-phase binding assay, purified α4β1 / VCAM-1; set-up: purchased R&D Systems; conditions: read-out: Binding affinity IC50, α4β1/VCAM-1
# Experimental: as §1
# [4] = molecular target: T1, α5β1 integrin; experiment: K562 cell adhesion to FN
# [5] = molecular target: T3, α4β1 integrin; experiment: Jurkat E6.1 cell adhesion to VCAM-1
# [6] = agonist = adhesion index >1, antagonist = adhesion index <1
Structure (SMILES),IC50 [1],IC50 [2],IC50 [3],"agonist or antagonist behaviour, FN/K562 α5β1 [4, 6]","EC50 ([4]; read-out: EC50 for agonists, FN/K562 α5β1, increase of cell adhesion, mean ± SD)","agonist or antagonist behaviour, VCAM-1/Jurkat E6.1 α4β1 [5, 6]","EC50 ([5]; read-out: EC50 for agonists, VCAM-1/Jurkat E6.1 α4β1, increase of cell adhesion, mean ± SD)"
Cc1ccccc1NC(=O)N1C(=O)CC1CC(=O)NCC(=O)O (stereo not shown) [1b],49 ± 7 nM,> 5000 nM,> 5000 nM,agonist,9.7 ± 0.5 nM,,
Cc1ccccc1NC(=O)N1C(=O)CC1CC(=O)O (stereo not shown) [1a],> 5000 nM,> 5000 nM,10.1 ± 4.9 nM,,,agonist,13 ± 0.8 nM
